Assay results reported in patent publication US20250223268A1, “4-Methylsulfonylbenzamide Compound, Preparation Method, Herbicidal Composition And Use” (Jiangsu Flag Chemical Industry Co., Ltd., priority 2022, published 2025).

Key:
Assay in all cases: Greenhouse herbicidal activity assay, post-emergence
Type in all cases: in vivo
Echinochloa crusgalli = details: Post-emergence test, rate 150 g a.i./hm^2, grade by fresh weight inhibition rate; for pest or weed control at 150 g/ha: Echinochloa crus-galli, read-out: Control efficacy grade, Echinochloa crusgalli
Outline: (§1)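 Foliar spray at 3-6 leaves; pot-grown in nutrient soil in growth chamber; air-dried post-spray. Read-out at 14-21 d: fresh weight inhibition, graded A (≥80% to 100%) down to E (<20%); NT = not tested.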

Cyperus iria = details: Post-emergence test, rate 150 g a.i./hm^2, grade by fresh weight inhibition rate; for pest or weed control at 150 g/ha: Cyperus iria, read-out: Control efficacy grade, Cyperus iria
Outline: as §1

Leptochloa chinensis = details: Post-emergence test, rate 150 g a.i./hm^2, grade by fresh weight inhibition rate; for pest or weed control at 150 g/ha: Dinebra chinensis, read-out: Control efficacy grade, Leptochloa chinensis
Outline: as §1

Eclipta prostrata = details: Post-emergence test, rate 150 g a.i./hm^2, grade by fresh weight inhibition rate; for pest or weed control at 150 g/ha: Eclipta prostrata, read-out: Control efficacy grade, Eclipta prostrata
Outline: as §1

Digitaria sanguinalis = details: Post-emergence test, rate 150 g a.i./hm^2, grade by fresh weight inhibition rate; for pest or weed control at 150 g/ha: Digitaria sanguinalis, read-out: Control efficacy grade, Digitaria sanguinalis
Outline: as §1

SMILES	Control efficacy grade, Echinochloa crusgalli (Echinochloa crusgalli)	Control efficacy grade, Cyperus iria (Cyperus iria)	Control efficacy grade, Leptochloa chinensis (Leptochloa chinensis)	Control efficacy grade, Eclipta prostrata (Eclipta prostrata)	Control efficacy grade, Digitaria sanguinalis (Digitaria sanguinalis)	pest or weed control at 150 g/ha (Echinochloa crusgalli) [%]	pest or weed control at 150 g/ha (Cyperus iria) [%]	pest or weed control at 150 g/ha (Leptochloa chinensis) [%]	pest or weed control at 150 g/ha (Eclipta prostrata) [%]	pest or weed control at 150 g/ha (Digitaria sanguinalis) [%]
Cc1nnc(NC(=O)c2ccc(S(C)(=O)=O)c(SCC(C)C)c2Cl)o1 [Compound 3-27]	A (Fresh weight inhibition rate≥80% to 100%)	A (Fresh weight inhibition rate≥80% to 100%)	A (Fresh weight inhibition rate≥80% to 100%)	A (Fresh weight inhibition rate≥80% to 100%)	A (Fresh weight inhibition rate≥80% to 100%)	–	–	–	–	–
Cc1nnc(NC(=O)c2ccc(S(C)(=O)=O)c(SCC3CC3)c2Cl)o1 [Compound 3-37]	A (Fresh weight inhibition rate≥80% to 100%)	A (Fresh weight inhibition rate≥80% to 100%)	A (Fresh weight inhibition rate≥80% to 100%)	A (Fresh weight inhibition rate≥80% to 100%)	A (Fresh weight inhibition rate≥80% to 100%)	–	–	–	–	–
Cc1nnc(NC(=O)c2ccc(S(C)(=O)=O)c(SCCC(C)C)c2Cl)o1 [Compound 3-52]	B (Fresh weight inhibition rate≥260% to <80%)	A (Fresh weight inhibition rate≥80% to 100%)	A (Fresh weight inhibition rate≥80% to 100%)	A (Fresh weight inhibition rate≥80% to 100%)	B (Fresh weight inhibition rate≥260% to <80%)	–	–	–	–	–
Cc1nnc(NC(=O)c2ccc(S(C)(=O)=O)c(SC3CC3)c2Cl)o1 [Compound 3-77]	A (Fresh weight inhibition rate≥80% to 100%)	A (Fresh weight inhibition rate≥80% to 100%)	A (Fresh weight inhibition rate≥80% to 100%)	A (Fresh weight inhibition rate≥80% to 100%)	A (Fresh weight inhibition rate≥80% to 100%)	–	–	–	–	–
Cc1nnc(NC(=O)c2ccc(S(C)(=O)=O)c(SC3CCC3)c2Cl)o1 [Compound 3-82]	A (Fresh weight inhibition rate≥80% to 100%)	A (Fresh weight inhibition rate≥80% to 100%)	A (Fresh weight inhibition rate≥80% to 100%)	A (Fresh weight inhibition rate≥80% to 100%)	A (Fresh weight inhibition rate≥80% to 100%)	–	–	–	–	–
Cc1nnc(NC(=O)c2ccc(S(C)(=O)=O)c(SC3CCCC3)c2Cl)o1 [Compound 3-87]	A (Fresh weight inhibition rate≥80% to 100%)	A (Fresh weight inhibition rate≥80% to 100%)	A (Fresh weight inhibition rate≥80% to 100%)	A (Fresh weight inhibition rate≥80% to 100%)	A (Fresh weight inhibition rate≥80% to 100%)	–	–	–	–	–
Cc1nnc(NC(=O)c2ccc(S(C)(=O)=O)c(SCC(F)(F)F)c2Cl)o1 [Compound 3-97]	A (Fresh weight inhibition rate≥80% to 100%)	A (Fresh weight inhibition rate≥80% to 100%)	A (Fresh weight inhibition rate≥80% to 100%)	A (Fresh weight inhibition rate≥80% to 100%)	A (Fresh weight inhibition rate≥80% to 100%)	–	–	–	–	–
Cc1nnc(NC(=O)c2ccc(S(C)(=O)=O)c(SCC(F)F)c2Cl)o1 [Compound 3-102]	A (Fresh weight inhibition rate≥80% to 100%)	A (Fresh weight inhibition rate≥80% to 100%)	A (Fresh weight inhibition rate≥80% to 100%)	A (Fresh weight inhibition rate≥80% to 100%)	A (Fresh weight inhibition rate≥80% to 100%)	–	–	–	–	–
C=CCSc1c(S(C)(=O)=O)ccc(C(=O)Nc2nnc(C)o2)c1Cl [Compound 3-112]	A (Fresh weight inhibition rate≥80% to 100%)	A (Fresh weight inhibition rate≥80% to 100%)	A (Fresh weight inhibition rate≥80% to 100%)	A (Fresh weight inhibition rate≥80% to 100%)	A (Fresh weight inhibition rate≥80% to 100%)	–	–	–	–	–
C=C(C)CSc1c(S(C)(=O)=O)ccc(C(=O)Nc2nnc(C)o2)c1Cl [Compound 3-142]	A (Fresh weight inhibition rate≥80% to 100%)	A (Fresh weight inhibition rate≥80% to 100%)	A (Fresh weight inhibition rate≥80% to 100%)	A (Fresh weight inhibition rate≥80% to 100%)	A (Fresh weight inhibition rate≥80% to 100%)	–	–	–	–	–
C#CCSc1c(S(C)(=O)=O)ccc(C(=O)Nc2nnc(C)o2)c1Cl [Compound 3-147]	B (Fresh weight inhibition rate≥260% to <80%)	B (Fresh weight inhibition rate≥260% to <80%)	A (Fresh weight inhibition rate≥80% to 100%)	A (Fresh weight inhibition rate≥80% to 100%)	A (Fresh weight inhibition rate≥80% to 100%)	–	–	–	–	–
Cc1nnc(NC(=O)c2ccc(S(C)(=O)=O)c(SCC#N)c2Cl)o1 [Compound 3-192]	A (Fresh weight inhibition rate≥80% to 100%)	A (Fresh weight inhibition rate≥80% to 100%)	A (Fresh weight inhibition rate≥80% to 100%)	A (Fresh weight inhibition rate≥80% to 100%)	A (Fresh weight inhibition rate≥80% to 100%)	–	–	–	–	–
Cc1nnc(NC(=O)c2ccc(S(C)(=O)=O)c(SCCC#N)c2Cl)o1 [Compound 3-197]	A (Fresh weight inhibition rate≥80% to 100%)	A (Fresh weight inhibition rate≥80% to 100%)	A (Fresh weight inhibition rate≥80% to 100%)	A (Fresh weight inhibition rate≥80% to 100%)	A (Fresh weight inhibition rate≥80% to 100%)	–	–	–	–	–
COCSc1c(S(C)(=O)=O)ccc(C(=O)Nc2nnc(C)o2)c1Cl [Compound 3-262]	A (Fresh weight inhibition rate≥80% to 100%)	A (Fresh weight inhibition rate≥80% to 100%)	A (Fresh weight inhibition rate≥80% to 100%)	A (Fresh weight inhibition rate≥80% to 100%)	A (Fresh weight inhibition rate≥80% to 100%)	–	–	–	–	–
CCCSc1c(S(C)(=O)=O)ccc(C(=O)Nc2nnco2)c1Cl [Compound 3-267, 2-chloro-4-(methylsulfonyl)-N-(1,3,4-oxadiazol-2-yl)-3-(propylthio)benzamide]	–	–	–	–	–	80 to 100	80 to 100	80 to 100	80 to 100	80 to 100
CCC[S+]([O-])c1c(S(C)(=O)=O)ccc(C(=O)Nc2nnco2)c1Cl (centres unmarked) [Compound 3-268, 2-chloro-4-(methylsulfonyl)-N-(1,3,4-oxadiazol-2-yl)-3-(propylsulfinyl)benzamide]	–	–	–	–	–	80 to 100	80 to 100	80 to 100	80 to 100	80 to 100
CC(C)Sc1c(S(C)(=O)=O)ccc(C(=O)Nc2nnco2)c1Cl [Compound 3-272]	A (Fresh weight inhibition rate≥80% to 100%)	A (Fresh weight inhibition rate≥80% to 100%)	A (Fresh weight inhibition rate≥80% to 100%)	A (Fresh weight inhibition rate≥80% to 100%)	C (Fresh weight inhibition rate≥40% to <60%)	–	–	–	–	–
CCCCSc1c(S(C)(=O)=O)ccc(C(=O)Nc2nnco2)c1Cl [Compound 3-277]	A (Fresh weight inhibition rate≥80% to 100%)	A (Fresh weight inhibition rate≥80% to 100%)	A (Fresh weight inhibition rate≥80% to 100%)	A (Fresh weight inhibition rate≥80% to 100%)	C (Fresh weight inhibition rate≥40% to <60%)	–	–	–	–	–
CC(C)CSc1c(S(C)(=O)=O)ccc(C(=O)Nc2nnco2)c1Cl [Compound 3-293]	A (Fresh weight inhibition rate≥80% to 100%)	A (Fresh weight inhibition rate≥80% to 100%)	A (Fresh weight inhibition rate≥80% to 100%)	A (Fresh weight inhibition rate≥80% to 100%)	A (Fresh weight inhibition rate≥80% to 100%)	–	–	–	–	–
